Assay results: ChEMBL document CHEMBL3351271, “Design, synthesis and biological evaluation of novel potent MDM2/p53 small-molecule inhibitors” (Bioorg Med Chem Lett, 2015); call rule not given here
pIC50, pKi: −log10 of the molar value.

Tests used:
SiHa = test: Cytotoxicity against human SiHa cells after 48 hrs by MTT assay; type: functional, cell-based; conditions: for IC50: siha; for pIC50: Homo sapiens, SiHa, 48 h, read-out: IC50
[1] = Cytotoxicity against p53 expressing human HCT116 cells after 48 hrs by MTT assay; type: functional, cell-based; conditions: HCT-116, 48 h
HEK293 = test: Cytotoxicity against HEK293 cells after 48 hrs by MTT assay; type: cell-based; conditions: Homo sapiens, HEK293, 48 h
[2] = Cytotoxicity against p53 deficient human HCT116 cells after 48 hrs by MTT assay; type: functional, cell-based; conditions: HCT-116, 48 h
MCF7 [3] = test: Cytotoxicity against human MCF7 cells after 48 hrs by MTT assay; type: functional, cell-based; conditions: MCF7, 48 h
HepG2 = test: Cytotoxicity against human HepG2 cells after 48 hrs by MTT assay; type: functional, cell-based; conditions: HepG2, 48 h
MCF7 [4] = test: Cytotoxicity against human MCF7 cells after 120 hrs by MTT assay; type: functional; conditions: MCF7, 120 h
[5] = biological target: Tumour suppressor p53/oncoprotein Mdm2 (Homo sapiens, UniProt Q00987); test: Inhibition of MDM2/P53 (unknown origin) protein interaction by fluorescent polarization assay
Sequence of Tumour suppressor p53/oncoprotein Mdm2 (P04637 whole entry): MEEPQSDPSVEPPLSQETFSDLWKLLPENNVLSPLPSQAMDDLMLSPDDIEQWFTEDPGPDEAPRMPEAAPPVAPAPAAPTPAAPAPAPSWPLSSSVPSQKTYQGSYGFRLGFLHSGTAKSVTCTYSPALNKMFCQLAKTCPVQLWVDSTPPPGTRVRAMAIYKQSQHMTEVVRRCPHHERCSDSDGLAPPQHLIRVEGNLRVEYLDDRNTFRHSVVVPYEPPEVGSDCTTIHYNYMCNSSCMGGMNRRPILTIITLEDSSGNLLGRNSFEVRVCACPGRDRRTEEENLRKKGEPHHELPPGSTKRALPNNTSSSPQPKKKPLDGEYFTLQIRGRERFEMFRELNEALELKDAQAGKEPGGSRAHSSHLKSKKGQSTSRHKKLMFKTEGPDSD
Sequence of Tumour suppressor p53/oncoprotein Mdm2 (Q00987 whole entry): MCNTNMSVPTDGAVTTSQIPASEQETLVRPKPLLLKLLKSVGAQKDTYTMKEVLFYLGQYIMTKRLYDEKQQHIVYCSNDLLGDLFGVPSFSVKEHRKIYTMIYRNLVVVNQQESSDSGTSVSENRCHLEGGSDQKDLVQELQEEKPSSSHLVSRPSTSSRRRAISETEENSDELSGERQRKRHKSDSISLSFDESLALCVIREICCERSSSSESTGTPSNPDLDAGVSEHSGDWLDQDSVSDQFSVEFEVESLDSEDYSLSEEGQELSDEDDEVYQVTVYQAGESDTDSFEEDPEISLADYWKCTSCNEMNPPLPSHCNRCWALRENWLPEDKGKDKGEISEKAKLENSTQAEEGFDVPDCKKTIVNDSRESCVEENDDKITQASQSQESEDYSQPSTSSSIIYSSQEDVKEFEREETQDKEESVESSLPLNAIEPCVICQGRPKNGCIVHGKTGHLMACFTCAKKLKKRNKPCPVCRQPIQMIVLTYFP

For `CC(C)Oc1ccc(C2CN(C)[C@]3(C(=O)Nc4ccccc43)[C@]23NC(=S)N(c2ccc(F)c(Cl)c2)C3=O)cc1` (stereo partly specified), the IC50 (SiHa) was “Not Active”, the pIC50 [1] was 5.07 and the pIC50 (HEK293) was 4.87. For the same molecule, the pIC50 [2] was 5.13, the pIC50 (MCF7 [3]) was 4.69 and the pIC50 (HepG2) was 4.30.
Molecule `CN1CC(c2ccc(Cl)cc2)[C@@]2(NC(=S)N(c3ccc(F)c(Cl)c3)C2=O)[C@@]12C(=O)Nc1ccccc12` (stereo partly specified) has a pIC50 (SiHa) of 5.12, a pIC50 [1] of 5.11 and a pIC50 (HEK293) of 5.25. It also gave a pIC50 [2] of 5.13, a pIC50 (MCF7 [3]) of 5.31 and a pIC50 (HepG2) of 5.04.
With `CC(C)Oc1ccc(C2CN(C)[C@]3(C(=O)Nc4ccc(Br)cc43)[C@]23NC(=S)N(c2ccc(F)c(Cl)c2)C3=O)cc1` (stereo partly specified) the IC50 (SiHa) was “Not Active”, the pIC50 [1] was 4.41 and the pIC50 (HEK293) was 4.80. The pIC50 [2] was 4.71, the pIC50 (MCF7 [3]) was 4.46 and the pIC50 (HepG2) was 4.46.
`CCOc1ccc(N2C(=O)[C@@]3(NC2=S)C(c2ccc(Cl)cc2)CN(C)[C@]32C(=O)Nc3ccccc32)cc1` (stereo partly specified) showed a pIC50 (SiHa) of 4.09, a pIC50 [1] of 5.07 and a pIC50 (HEK293) of 5.04. For the same molecule, the pIC50 [2] was 5.07, the pIC50 (MCF7 [3]) was 4.06 and the pIC50 (HepG2) was 3.99.
In the case of `CCc1ccc(C2CN(C)[C@]3(C(=O)Nc4ccccc43)[C@]23NC(=S)N(c2ccc(F)c(Cl)c2)C3=O)cc1` (stereo partly specified), the pIC50 (SiHa) was 4.37, the pIC50 [1] was 5.07 and the pIC50 (HEK293) was 4.90. It also gave a pIC50 [2] of 5.07, a pIC50 (MCF7 [3]) of 4.72 and a pIC50 (HepG2) of 4.47.
For `CCOc1ccc(N2C(=O)[C@@]3(NC2=S)C(c2ccc(Cl)cc2)CN(C)[C@]32C(=O)Nc3ccc(Br)cc32)cc1` (stereo partly specified), the IC50 (SiHa) was “Not Active”, the pIC50 [1] was no more than 4.30 and the pIC50 (HEK293) was 4.54. The pIC50 [2] was 4.79, the pIC50 (MCF7 [3]) was 4.46 and the pIC50 (HepG2) was 4.38.
With `CN1CC(c2ccc(Cl)cc2)[C@@]2(NC(=S)N(c3ccc(F)c(Cl)c3)C2=O)[C@@]12C(=O)Nc1ccc(Br)cc12` (stereo partly specified) the pIC50 (SiHa) was 4.92, the pIC50 [1] was 5.00 and the pIC50 (HEK293) was 4.99. For the same molecule, the pIC50 [2] was 5.06, the pIC50 (MCF7 [3]) was 5.16 and the pIC50 (HepG2) was 4.96.
In the case of `CCc1ccc(C2CN(C)[C@]3(C(=O)Nc4ccc(Br)cc43)[C@]23NC(=S)N(c2ccc(F)c(Cl)c2)C3=O)cc1` (stereo partly specified), the pIC50 (SiHa) was 4.10, the pIC50 [1] was 4.93 and the pIC50 (HEK293) was 4.81. For the same molecule, the pIC50 [2] was 4.48, the pIC50 (MCF7 [3]) was 4.81 and the pIC50 (HepG2) was 4.64.
`CCOc1cc(C(C)(C)C)ccc1C1=N[C@@](C)(c2ccc(Cl)cc2)[C@@](C)(c2ccc(Cl)cc2)N1C(=O)N1CCN(CCS(C)(=O)=O)CC1` showed a CC50 (MCF7 [4]) of 0.94 µM.
Molecule `CC(C)CC(N/C(C(=O)NCc1ccccc1)=C1\C(C(=O)NO)=Nc2cc(Cl)ccc21)C(=O)NO` (stereo unspecified) has a pKi [5] of 6.05.
Work on `COc1ccc(C2=N[C@@H](c3ccc(Cl)cc3)[C@@H](c3ccc(Cl)cc3)N2C(=O)N2CCNC(=O)C2)c(OC(C)C)c1` [NUTLIN-3] yielded a pIC50 (HepG2) of 5.29.
